{"source": "patent US12290519B2", "about": "“Anti-inflammatory coupling compound drug, and preparation method therefor and use thereof” (COVAL BIOPHARMA (SHANGHAI) CO., LTD., priority 2021, dated 2025)", "experiment": "Hydrolysis rate / drug release rate of the compounds (release of JAK inhibitor, HPLC)", "format": "physicochemical", "conditions": "% release of JAK inhibitor from sample in acetonitrile/water=7/3 (v/v), 37° C. constant temperature shaker, sampled days 1-4, HPLC", "protocol": "Analysis Method for Hydrolysis Rate of Compounds of the Present Invention\n1. Preparation of Standard Working Curve Solution\n(§1) About 10 mg of JAK inhibitors (tofacitinib and baricitinib) reference substances were weighed into a 25 mL volumetric flask, acetonitrile/water=7/3 (v/v) was added to dissolve and dilute to the marked volume, serving as a stock solution. The stock solution was diluted with a suitable dilution factor to obtain linear solutions of each concentration: 0.0002 mg/mL, 0.0004 mg/mL, 0.004 mg/mL, 0.04 mg/mL, and 0.08 mg/mL.\nas §1, with “(Oclacitinib, Ruxolitinib, Delgocitinib,” for “(tofacitinib”, “Upadacitinib)” for “baricitinib)”\n2. Preparation of Sample Solution\nAbout 5 mg of the sample (the compound prepared in the present invention) was weighed into a 20 mL volumetric flask, acetonitrile/water=7/3 (v/v) was added to dissolve and dilute to the marked volume, serving as a stock solution. An appropriate amount of HPLC was loaded as the 0-day sample. The test solution was sealed with a sealing film and placed in a 37° C. constant temperature shaker. The test samples were taken at the same time on days 1, 2, 3, and 4 respectively. the release amount of JAK inhibitor in the sample was calculated according to the sample weight and JAK inhibitor standard curve.\n3. Calculation Formula % Release of JAK Inhibitor r=100%×((AJAK Inhibitor−b)/a)/((W/20×M2/M1) wherein • AJAK inhibitor is the peak area of JAK inhibitor in the sample chromatogram • b is the intercept of the standard curve M1 is the molecular weight of the sample a is the slope of the standard curve\nW is the sample weight (mg) M2 is the molecular weight of the JAK inhibitor\n4. Chromatographic Conditions", "data": [{"compound": "CCc1cccc2c3c([nH]c12)C(CC)(CC(=O)n1ccc2c(-c4cnn(C5(CC#N)CN(S(=O)(=O)CC)C5)c4)ncnc21)OCC3", "note": "(stereo not shown) [Ex. 25, 2-(3-(4-(7-(2-(1,8-diethyl-1,3,4,9-tetrahydropyrano [3,4-b]indol-1-yl)acetyl)-7H-pyrrolo [2,3-d]pyrimidin-4-yl)-1H-pyrazol-1-yl)-1-(ethylsulfonyl)azetidin-3-yl) acetonitrile]", "values": [{"measurement": "Release Rate (%/day)", "value": 0.68, "unit": "%/day"}]}, {"compound": "COc1ccc2c(c1)c(CC(=O)n1ccc3c(-c4cnn([C@H](CC#N)C5CCCC5)c4)ncnc31)c(C)n2C(=O)c1ccc(Cl)cc1", "note": "[Ex. 79, (R)-3-(4-(7-(2-(1-(4-chlorobenzoyl)-5-methoxy-2-methyl-1H-indol-3-yl)acetyl)-7H-pyrrolo [2,3-d]pyrimidin-4-yl)-1H-pyrazol-1-yl)-3-cyclopentylpropanenitrile]", "values": [{"measurement": "Release Rate (%/day)", "value": 7.38, "unit": "%/day"}]}, {"compound": "CCS(=O)(=O)N1CC(CC#N)(n2cc(-c3ncnc4c3ccn4C(=O)Cc3c(C)n(C(=O)c4ccc(Cl)cc4)c4ccc(OC)cc34)cn2)C1", "note": "[Ex. 23, 2-(3-(4-(7-(2-(1-(4-chlorobenzoyl)-5-methoxy-2-methyl-1H-indol-3-yl)acetyl)-7H-pyrrolo [2,3-d]pyrimidin-4-yl)-1H-pyrazol-1-yl)-1-(ethylsulfonyl)azetidin-3-yl) acetonitrile]", "values": [{"measurement": "Release Rate (%/day)", "value": 7.63, "unit": "%/day"}]}, {"compound": "CCC(C(=O)n1ccc2c1ncc1ncc([C@H]3CN(C(=O)NCC(F)(F)F)C[C@H]3CC)n12)c1ccc(N2Cc3ccccc3C2=O)cc1", "note": "(stereo partly shown) [Ex. 138]", "values": [{"measurement": "Release Rate (%/day)", "value": 2.15, "unit": "%/day"}]}, {"compound": "COc1ccc2cc([C@H](C)C(=O)n3ccc4c(N(C)[C@H]5CN(C(=O)CC#N)CC[C@H]5C)ncnc43)ccc2c1", "note": "[Ex. 6, 3-((3R, 4R)-3-((7-((S)-2-(6-methoxynaphthalen-2-yl)propanoyl)-7H-pyrrolo[2,3-d]pyrimidin-4-yl) (methyl)amino)-4-methylpiperidin-1-yl)-3-oxopropanenitrile]", "values": [{"measurement": "Release Rate (%/day)", "value": 9.82, "unit": "%/day"}]}, {"compound": "C[C@@H]1CCN(C(=O)CC#N)C[C@@H]1N(C)c1ncnc2c1ccn2COC(=O)Cc1ccccc1Nc1c(Cl)cccc1Cl", "note": "[Ex. 51, (4-(((3R, 4R)-1-(2-cyanoacetyl)-4-methylpiperidin-3-yl) (methyl)amino)-7H-pyrrolo [2,3-d]pyrimidin-7-yl) methyl 2-(2-((2,6-dichlorophenyl)amino)phenyl) acetate]", "values": [{"measurement": "Release Rate (%/day)", "value": 0.35, "unit": "%/day"}]}, {"compound": "Cc1c(Cl)cccc1Nc1ccccc1C(=O)OCn1ccc2c(N(C)[C@H]3CN(C(=O)CC#N)CC[C@H]3C)ncnc21", "note": "[Ex. 66, (4-(((3R, 4R)-1-(2-cyanoacetyl)-4-methylpiperidin-3-yl) (methyl)amino)-7H-pyrrolo [2,3-d]pyrimidin-7-yl) methyl 2-((3-chloro-2-methylphenyl)amino) benzoate]", "values": [{"measurement": "Release Rate (%/day)", "value": 0.06, "unit": "%/day"}]}, {"compound": "CNS(=O)(=O)C[C@H]1CC[C@H](N(C)c2ncnc3c2ccn3COC(=O)C(C)c2cccc(C(=O)c3ccccc3)c2)CC1", "note": "(stereo partly drawn) [Ex. 90, (4-(Methyl ((trans)-4-((N-methylsulfamoyl)methyl)cyclohexyl)amino)-7H-pyrrolo [2,3-d]pyrimidin-7-yl) methyl 2-(3-benzoylphenyl) propanoate]", "values": [{"measurement": "Release Rate (%/day)", "value": 0.35, "unit": "%/day"}]}, {"compound": "CCS(=O)(=O)N1CC(CC#N)(n2cc(-c3ncnc4c3ccn4COC(=O)[C@@H](C)c3ccc(CC(C)C)cc3)cn2)C1", "note": "[Ex. 60, Methyl (4-(1-(3-(cyanomethyl)-1-(ethylsulfonyl)azetidin-3-yl)-1H-pyrazol-4-yl)-7H-pyrrolo [2,3-d]pyrimidin-7-yl) (S)-2-(4-isobutylphenyl) propanoate]", "values": [{"measurement": "Release Rate (%/day)", "value": "<0.01", "unit": "%/day"}]}, {"compound": "Cc1cccc(Nc2ccccc2C(=O)n2ccc3c(N(C)[C@H]4CN(C(=O)CC#N)CC[C@H]4C)ncnc32)c1C", "note": "[Ex. 4, 3-((3R,4R)-3-((7-(2-((2,3-dimethylphenyl)amino)benzoyl)-7H-pyrrolo[2,3-d]pyrimidin-4-yl)(methyl)amino)-4-methylpiperidin-1-yl)-3-oxopropanenitrile]", "values": [{"measurement": "Release Rate (%/day)", "value": 3.32, "unit": "%/day"}]}, {"compound": "CCC(C(=O)OCn1ccc2c(-c3cnn([C@H](CC#N)C4CCCC4)c3)ncnc21)c1ccc(N2Cc3ccccc3C2=O)cc1", "note": "(stereo partly drawn) [Ex. 105, (4-(1-((R)-2-cyano-1-cyclopentylethyl)-1H-pyrazol-4-yl)-7H-pyrrolo [2,3-d]pyrimidin-7-yl) methyl 2-(4-(1-oxoisoindolin-2-yl)phenyl) butanoate]", "values": [{"measurement": "Release Rate (%/day)", "value": 0.17, "unit": "%/day"}]}, {"compound": "CNS(=O)(=O)CC1CCC(N(C)c2ncnc3c2ccn3COC(=O)C(C)c2ccc(-c3ccccc3)c(F)c2)CC1", "note": "(stereo not drawn) [Ex. 113, (4-(Methyl ((trans)-4-((N-methylsulfamoyl)methyl)cyclohexyl)amino)-7H-pyrrolo [2,3-d]pyrimidin-7-yl) methyl 2-(2-fluoro-[1, 1′-biphenyl]-4-yl) propanoate]", "values": [{"measurement": "Release Rate (%/day)", "value": 0.42, "unit": "%/day"}]}, {"compound": "CCc1cccc2c3c([nH]c12)C(CC)(CC(=O)OCn1ccc2c(N(C)[C@H]4CC[C@H](CS(=O)(=O)NC)CC4)ncnc21)OCC3", "note": "(stereo partly drawn) [Ex. 94, (4-(Methyl ((trans)-4-((N-methylsulfamoyl)methyl)cyclohexyl)amino)-7H-pyrrolo [2,3-d]pyrimidin-7-yl) methyl 2-(1,8-diethyl-1,3,4,9-tetrahydropyran [3,4-b]indol-1-yl) acetate]", "values": [{"measurement": "Release Rate (%/day)", "value": 0.72, "unit": "%/day"}]}, {"compound": "CNS(=O)(=O)C[C@H]1CC[C@H](N(C)c2ncnc3c2ccn3C(=O)Cc2ccc(NC(C)=O)cc2)CC1", "note": "[Ex. 58, N-(4-(2-(4-(methyl ((trans)-4-((N-methylsulfamoyl)methyl)cyclohexyl)amino)-7H-pyrrolo [2,3-d]pyrimidin-7-yl)-2-oxoethyl)phenyl) acetamide]", "values": [{"measurement": "Release Rate (%/day)", "value": 12.46, "unit": "%/day"}]}, {"compound": "CNS(=O)(=O)C[C@H]1CC[C@H](N(C)c2ncnc3c2ccn3COC(=O)Cc2ccc(NC(C)=O)cc2)CC1", "note": "[Ex. 93, (4-(Methyl ((trans)-4-((N-methylsulfamoyl)methyl)cyclohexyl)amino)-7H-pyrrolo [2,3-d]pyrimidin-7-yl) methyl 2-(4-acetamidophenyl) acetate]", "values": [{"measurement": "Release Rate (%/day)", "value": 0.83, "unit": "%/day"}]}, {"compound": "CC(C(=O)n1ccc2c(-c3cnn([C@H](CC#N)C4CCCC4)c3)ncnc21)c1ccc(-c2ccccc2)c(F)c1", "note": "(stereo partly drawn) [Ex. 33, (3R)-3-cyclopentyl-3-(4-(7-(2-(2-fluoro-[1, 1′-biphenyl]-4-yl)propanoyl)-7H-pyrrolo [2,3-d]pyrimidin-4-yl)-1H-pyrazol-1-yl) propanenitrile]", "values": [{"measurement": "Release Rate (%/day)", "value": 5.01, "unit": "%/day"}]}, {"compound": "CC[C@@H]1CN(C(=O)NCC(F)(F)F)C[C@@H]1c1cnc2cnc3c(ccn3C(=O)C(C)c3ccc(-c4ccccc4)c(F)c3)n12", "note": "(stereo partly drawn) [Ex. 125, (3S, 4R)-3-ethyl-4-(3-(2-(2-fluoro-[1, 1′-biphenyl]-4-yl)propanoyl)-3H-imidazo [1,2-a]pyrrolo [2,3-e]pyrazin-8-yl)-N-(2,2,2-trifluoroethyl) pyrrolidine-1-carboxamide]", "values": [{"measurement": "Release Rate (%/day)", "value": 6.17, "unit": "%/day"}]}, {"compound": "CC(=O)Nc1ccc(CC(=O)n2ccc3c(N(C)[C@H]4CN(C(=O)CC#N)CC[C@H]4C)ncnc32)cc1", "note": "[Ex. 13, N-(4-(2-(4-(((3R, 4R)-1-(2-cyanoacetyl)-4-methylpiperidin-3-yl) (methyl)amino)-7H-pyrrolo[2,3-d]pyrimidin-7-yl)-2-oxoethyl)phenyl)acetamide]", "values": [{"measurement": "Release Rate (%/day)", "value": 12.18, "unit": "%/day"}]}, {"compound": "CNS(=O)(=O)C[C@H]1CC[C@H](N(C)c2ncnc3c2ccn3COC(=O)[C@@H](C)c2ccc3cc(OC)ccc3c2)CC1", "note": "[Ex. 89, (4-(Methyl ((trans)-4-((N-methylsulfamoyl)methyl)cyclohexyl)amino)-7H-pyrrolo [2,3-d]pyrimidin-7-yl) methyl (S)-2-(6-methoxynaphthalen-2-yl) propanoate]", "values": [{"measurement": "Release Rate (%/day)", "value": 0.16, "unit": "%/day"}]}, {"compound": "Cc1cccc(Nc2ccccc2C(=O)OCn2ccc3c(N(C)[C@H]4CN(C(=O)CC#N)CC[C@H]4C)ncnc32)c1C", "note": "[Ex. 67, (4-(((3R, 4R)-1-(2-cyanoacetyl)-4-methylpiperidin-3-yl) (methyl)amino)-7H-pyrrolo [2,3-d]pyrimidin-7-yl) methyl 2-((2,3-dimethylphenyl)amino) benzoate]", "values": [{"measurement": "Release Rate (%/day)", "value": 0.02, "unit": "%/day"}]}, {"compound": "CCc1cccc2c3c([nH]c12)C(CC)(CC(=O)n1ccc2c(-c4cnn([C@H](CC#N)C5CCCC5)c4)ncnc21)OCC3", "note": "(stereo partly drawn) [Ex. 45, (3R)-3-cyclopentyl-3-(4-(7-(2-(1,8-diethyl-1,3,4,9-tetrahydropyran [3,4-b]indol-1-yl)acetyl)-7H-pyrrolo [2,3-d]pyrimidin-4-yl)-1H-pyrazol-1-yl) propanenitrile]", "values": [{"measurement": "Release Rate (%/day)", "value": 1.93, "unit": "%/day"}]}, {"compound": "CCS(=O)(=O)N1CC(CC#N)(n2cc(-c3ncnc4c3ccn4COC(=O)Cc3ccccc3Nc3c(Cl)cccc3Cl)cn2)C1", "note": "[Ex. 70, Methyl (4-(1-(3-(cyanomethyl)-1-(ethylsulfonyl)azetidin-3-yl)-1H-pyrazol-4-yl)-7H-pyrrolo [2,3-d]pyrimidin-7-yl) 2-(2-((2,6-dichlorophenyl)amino)phenyl) acetate]", "values": [{"measurement": "Release Rate (%/day)", "value": 0.42, "unit": "%/day"}]}]}
